# Data: PubChem BioAssay (NCI)
#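 96-well plates; 48 h exposure; 5 concentrations. Endpoints by linear interpolation between flanking doses. Not reached: highest tested concentration assigned. Definition used: TGI = concentration required for complete inhibition of growth.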
# What was measured:
# Assay in all cases: NCI-60 cell line screen, 48 h
# A549 NSCLC = test system: A549 NSCLC
# KM12 colon = test system: KM12 colon
# UACC-257 melanoma = test system: UACC-257 melanoma
# SNB-19 CNS = test system: SNB-19 CNS
# 786-0 renal = test system: 786-0 renal
# OVCAR-3 ovarian = test system: OVCAR-3 ovarian
# HL-60(TB) leukemia = test system: HL-60(TB) leukemia
# SK-MEL-28 melanoma = test system: SK-MEL-28 melanoma
# HCT-15 colon = test system: HCT-15 colon
# SR leukemia = test system: SR leukemia
# MALME-3M melanoma = test system: MALME-3M melanoma
# OVCAR-4 ovarian = test system: OVCAR-4 ovarian
# COLO 205 colon = test system: COLO 205 colon
# OVCAR-8 ovarian = test system: OVCAR-8 ovarian
# NCI/ADR-RES ovarian = test system: NCI/ADR-RES ovarian
# MDA-N = test system: MDA-N
# SF-268 CNS = test system: SF-268 CNS
# UACC-62 melanoma = test system: UACC-62 melanoma
# NCI-H460 lung = test system: NCI-H460 lung
# MOLT-4 leukemia = test system: MOLT-4 leukemia
# EKVX NSCLC = test system: EKVX NSCLC
# RXF 393 renal = test system: RXF 393 renal
# A498 renal = test system: A498 renal
# T-47D breast = test system: T-47D breast
# SN12C renal = test system: SN12C renal
# BT-549 breast = test system: BT-549 breast
# HCC-2998 colon = test system: HCC-2998 colon
# LOX IMVI melanoma = test system: LOX IMVI melanoma
# HS 578T breast = test system: HS 578T breast
# NCI-H226 lung = test system: NCI-H226 lung
# DU-145 prostate = test system: DU-145 prostate
# U251 CNS = test system: U251 CNS
# HOP-62 NSCLC = test system: HOP-62 NSCLC
# SNB-75 CNS = test system: SNB-75 CNS
# CAKI-1 renal = test system: CAKI-1 renal
# M14 melanoma = test system: M14 melanoma
# TK-10 renal = test system: TK-10 renal
# MDA-MB-435 = test system: MDA-MB-435
# CCRF-CEM leukemia = test system: CCRF-CEM leukemia
# SF-295 CNS = test system: SF-295 CNS
# MDA-MB-231 breast = test system: MDA-MB-231 breast
# NCI-H522 lung = test system: NCI-H522 lung
# NCI-H23 lung = test system: NCI-H23 lung
# HOP-92 NSCLC = test system: HOP-92 NSCLC
# SK-OV-3 ovarian = test system: SK-OV-3 ovarian
# SK-MEL-2 melanoma = test system: SK-MEL-2 melanoma
# ACHN renal = test system: ACHN renal
# PC-3 prostate = test system: PC-3 prostate
# SF-539 CNS = test system: SF-539 CNS
# HCT-116 colon = test system: HCT-116 colon
# OVCAR-5 ovarian = test system: OVCAR-5 ovarian
# K-562 leukemia = test system: K-562 leukemia
# SK-MEL-5 melanoma = test system: SK-MEL-5 melanoma
# SW-620 colon = test system: SW-620 colon
# HT29 colon = test system: HT29 colon
# RPMI-8226 leukemia = test system: RPMI-8226 leukemia
# UO-31 renal = test system: UO-31 renal
# IGROV1 ovarian = test system: IGROV1 ovarian
# MCF7 breast = test system: MCF7 breast
smiles,measurement,setting,value
Cn1c2cc(Cl)ccc2c2ccc3c(c21)C(=O)C=CC3=O,TGI,A549 NSCLC,> 100 µM
same,TGI,KM12 colon,> 100 µM
same,TGI,UACC-257 melanoma,> 77.3 µM
same,TGI,SNB-19 CNS,> 100 µM
same,TGI,786-0 renal,> 55.9 µM
same,TGI,OVCAR-3 ovarian,17.1 µM
same,TGI,HL-60(TB) leukemia,45.9 µM
same,TGI,SK-MEL-28 melanoma,63.5 µM
same,TGI,HCT-15 colon,> 57.5 µM
same,TGI,SR leukemia,26.1 µM
same,TGI,MALME-3M melanoma,33.4 µM
same,TGI,OVCAR-4 ovarian,52.3 µM
same,TGI,COLO 205 colon,20.7 µM
same,TGI,OVCAR-8 ovarian,> 100 µM
same,TGI,NCI/ADR-RES ovarian,> 89.7 µM
same,TGI,MDA-N,83.1 µM
same,TGI,SF-268 CNS,> 82.6 µM
same,TGI,UACC-62 melanoma,> 31.6 µM
same,TGI,NCI-H460 lung,> 100 µM
same,TGI,MOLT-4 leukemia,10.3 µM
same,TGI,EKVX NSCLC,> 100 µM
same,TGI,RXF 393 renal,40 µM
same,TGI,A498 renal,> 100 µM
same,TGI,T-47D breast,55.6 µM
same,TGI,SN12C renal,21.2 µM
same,TGI,BT-549 breast,> 63.8 µM
same,TGI,HCC-2998 colon,> 100 µM
same,TGI,LOX IMVI melanoma,> 100 µM
same,TGI,HS 578T breast,> 100 µM
same,TGI,NCI-H226 lung,> 100 µM
same,TGI,DU-145 prostate,> 100 µM
same,TGI,U251 CNS,> 100 µM
same,TGI,HOP-62 NSCLC,> 100 µM
same,TGI,SNB-75 CNS,> 100 µM
same,TGI,CAKI-1 renal,22.1 µM
same,TGI,M14 melanoma,> 64 µM
same,TGI,TK-10 renal,56.6 µM
same,TGI,MDA-MB-435,> 60.1 µM
same,TGI,CCRF-CEM leukemia,31.4 µM
same,TGI,SF-295 CNS,> 100 µM
same,TGI,MDA-MB-231 breast,> 68.6 µM
same,TGI,NCI-H522 lung,22.9 µM
same,TGI,NCI-H23 lung,54.4 µM
same,TGI,HOP-92 NSCLC,35.8 µM
same,TGI,SK-OV-3 ovarian,> 100 µM
same,TGI,SK-MEL-2 melanoma,> 100 µM
same,TGI,ACHN renal,40.9 µM
same,TGI,PC-3 prostate,> 82 µM
same,TGI,SF-539 CNS,> 78.8 µM
same,TGI,HCT-116 colon,> 53.7 µM
same,TGI,OVCAR-5 ovarian,> 100 µM
same,TGI,K-562 leukemia,11.4 µM
same,TGI,SK-MEL-5 melanoma,> 100 µM
same,TGI,SW-620 colon,17.9 µM
same,TGI,HT29 colon,> 64.6 µM
same,TGI,RPMI-8226 leukemia,23.7 µM
same,TGI,UO-31 renal,> 100 µM
same,TGI,IGROV1 ovarian,> 63.1 µM
same,TGI,MCF7 breast,50.6 µM
CCOC(=O)c1[nH]n(-c2ccccc2)c(=O)c1C=NC(=S)C(N)=S,TGI,A549 NSCLC,> 100 µM
same,TGI,KM12 colon,> 100 µM
same,TGI,UACC-257 melanoma,> 100 µM
same,TGI,SNB-19 CNS,> 100 µM
same,TGI,786-0 renal,38.2 µM
same,TGI,OVCAR-3 ovarian,> 100 µM
same,TGI,HL-60(TB) leukemia,> 100 µM
same,TGI,SK-MEL-28 melanoma,> 100 µM
same,TGI,HCT-15 colon,> 100 µM
same,TGI,SR leukemia,> 100 µM
same,TGI,MALME-3M melanoma,> 100 µM
same,TGI,OVCAR-4 ovarian,> 100 µM
same,TGI,COLO 205 colon,68.5 µM
same,TGI,OVCAR-8 ovarian,> 100 µM
same,TGI,NCI/ADR-RES ovarian,> 100 µM
same,TGI,MDA-N,> 100 µM
same,TGI,SF-268 CNS,> 100 µM
same,TGI,UACC-62 melanoma,> 100 µM
same,TGI,NCI-H460 lung,> 100 µM
same,TGI,MOLT-4 leukemia,> 100 µM
same,TGI,EKVX NSCLC,97.7 µM
same,TGI,RXF 393 renal,65.1 µM
same,TGI,A498 renal,> 100 µM
same,TGI,T-47D breast,41.8 µM
same,TGI,SN12C renal,> 100 µM
same,TGI,BT-549 breast,> 100 µM
same,TGI,HCC-2998 colon,> 100 µM
same,TGI,LOX IMVI melanoma,> 100 µM
same,TGI,HS 578T breast,> 100 µM
same,TGI,NCI-H226 lung,> 100 µM
same,TGI,DU-145 prostate,> 100 µM
same,TGI,U251 CNS,> 100 µM
same,TGI,HOP-62 NSCLC,> 100 µM
same,TGI,SNB-75 CNS,91.4 µM
same,TGI,CAKI-1 renal,> 100 µM
same,TGI,M14 melanoma,73.3 µM
same,TGI,TK-10 renal,> 100 µM
same,TGI,MDA-MB-435,> 100 µM
same,TGI,CCRF-CEM leukemia,> 100 µM
same,TGI,SF-295 CNS,> 100 µM
same,TGI,MDA-MB-231 breast,> 100 µM
same,TGI,NCI-H522 lung,35.5 µM
same,TGI,NCI-H23 lung,> 100 µM
same,TGI,HOP-92 NSCLC,> 100 µM
same,TGI,SK-OV-3 ovarian,> 100 µM
same,TGI,SK-MEL-2 melanoma,> 100 µM
same,TGI,ACHN renal,64.8 µM
same,TGI,PC-3 prostate,> 100 µM
same,TGI,SF-539 CNS,57.4 µM
same,TGI,HCT-116 colon,44.6 µM
same,TGI,OVCAR-5 ovarian,> 100 µM
same,TGI,K-562 leukemia,> 100 µM
same,TGI,SK-MEL-5 melanoma,40.3 µM
same,TGI,SW-620 colon,> 100 µM
same,TGI,HT29 colon,> 100 µM
same,TGI,UO-31 renal,42.2 µM
same,TGI,IGROV1 ovarian,> 100 µM
same,TGI,MCF7 breast,> 100 µM
